Measured values as given in ChEMBL document CHEMBL1156336, “Synthesis, X-ray crystal structure study and antitumoral evaluations of 5,6-disubstituted pyrimidine derivatives” (Bioorg Med Chem, 2010).
pIC50: −log10 of the molar value.

Experiments:
MCF7 = test: Antitumor activity against human MCF7 cells after 72 hrs by MTT assay; conditions: MCF7, 72 h
SW-620 [1] = test: Antitumor activity against human SW620 cells after 72 hrs by MTT assay; conditions: SW-620, 72 h
HCT-116 = test: Antitumor activity against human HCT116 cells after 72 hrs by MTT assay; conditions: HCT-116, 72 h
MOLT-4 = test: Antitumor activity against human MOLT4 cells after 72 hrs by MTT assay; conditions: MOLT-4, 72 h
NCI-H460 = test: Antitumor activity against human H460 cells after 72 hrs by MTT assay; conditions: NCI-H460, 72 h
SW-620 [2] = test: Selectivity ratio IC50 of 5-fluorouracil to compound for human SW620 cells; assay type: functional

| Structure (SMILES) | pIC50 (MCF7) | pIC50 (SW-620 [1]) | pIC50 (HCT-116) | pIC50 (MOLT-4) | pIC50 (NCI-H460) | Ratio IC50 (SW-620 [2]) |
| --- | --- | --- | --- | --- | --- | --- |
| Cc1[nH]c(=O)[nH]c(=O)c1CCO | < 4.00 | < 4.00 | < 4.00 | < 4.00 | < 4.00 |  |
| CC(=O)OCCc1c(C)nc(Cl)nc1Cl | < 4.00 | < 4.00 | < 4.00 | < 4.00 | < 4.00 |  |
| COc1nc(C)c(CCO)c(OC)n1 | < 4.00 | < 4.00 | < 4.00 | < 4.00 | < 4.00 |  |
| CC(=O)OCCc1c(C)[nH]c(=O)[nH]c1=O | < 4.00 | < 4.00 | < 4.00 | < 4.00 | < 4.00 |  |
| COc1nc(C)c2c(n1)OCC2 | < 4.00 | < 4.00 | < 4.00 |  | < 4.00 |  |
| COc1nc(C)c(CCOC(C)=O)c(OC)n1 | 4.19 | 4.36 | 4.40 |  | 4.33 |  |
| COc1nc(Cl)nc(C)c1CCOC(C)=O | < 4.00 | < 4.00 | < 4.00 | < 4.00 | < 4.00 |  |
| COc1nc(Cl)nc(C)c1CCO | < 4.00 | < 4.00 | < 4.00 |  | < 4.00 |  |
| COc1ccc(C(OCCc2c(C)nc(OC)nc2OC)(c2ccccc2)c2ccccc2)cc1 | 5.22 | 4.70 | 5.40 | 5.30 | 4.30 |  |
| COc1nc(C)c(CCF)c(OC)n1 | < 4.00 | < 4.00 | < 4.00 |  | < 4.00 |  |
| COc1nc(Cl)nc(C)c1CCF | < 4.00 | < 4.00 | < 4.00 |  | < 4.00 |  |
| Cc1nc(Cl)nc(Cl)c1CCCl | 5.10 | 6.40 | 5.70 | 5.30 | 5.52 | 20 |
| COc1nc(C)c(CCCl)c(OC)n1 | < 4.00 | < 4.00 | < 4.00 | < 4.00 | < 4.00 |  |
| COc1nc(CC(O)COCc2ccccc2)c(CCCl)c(OC)n1 (configuration not stated) | 4.59 | 4.70 | 4.80 | 4.72 | 4.12 |  |
| O=c1[nH]c(CC(O)COCc2ccccc2)c(CCCl)c(=O)[nH]1 (configuration not stated) | < 4.00 | < 4.00 | < 4.00 | < 4.00 | < 4.00 |  |
| Cc1[nH]c(=O)[nH]c(=O)c1CCCl | < 4.00 | < 4.00 | < 4.00 | < 4.00 | < 4.00 |  |
| Nc1ccn([C@@H]2O[C@H](CO)[C@@H](O)[C@@H]2O)c(=O)n1 [CYTARABINE] | ≤ 4.00 | 4.52 | 7.00 | 6.00 | 7.00 |  |
| O=c1[nH]cc(F)c(=O)[nH]1 [FLUOROURACIL] |  |  |  | 7.52 |  |  |
